Source: the kinase profiling compilation of Christmann-Franck et al. (2016)
Values joined by “and” are separate entries in the source; they are usually repeats but may differ in a detail not shown here. Equal entries are not always repeated.

Key:
Assay in all cases: radiometric filter-binding kinase assay
MAP3K1 (human) = MAP3K1 (human) (UniProt Q13233)
DAPK1 (human) = DAPK1 (human) (UniProt P53355)
PDPK1 (human) = PDPK1 (human) (UniProt O15530); conditions: compound 1.0 µM
IKBKE (human) = IKBKE (human) (UniProt Q14164)
Chain of IKBKE (human) (Q14164 whole entry, looked up): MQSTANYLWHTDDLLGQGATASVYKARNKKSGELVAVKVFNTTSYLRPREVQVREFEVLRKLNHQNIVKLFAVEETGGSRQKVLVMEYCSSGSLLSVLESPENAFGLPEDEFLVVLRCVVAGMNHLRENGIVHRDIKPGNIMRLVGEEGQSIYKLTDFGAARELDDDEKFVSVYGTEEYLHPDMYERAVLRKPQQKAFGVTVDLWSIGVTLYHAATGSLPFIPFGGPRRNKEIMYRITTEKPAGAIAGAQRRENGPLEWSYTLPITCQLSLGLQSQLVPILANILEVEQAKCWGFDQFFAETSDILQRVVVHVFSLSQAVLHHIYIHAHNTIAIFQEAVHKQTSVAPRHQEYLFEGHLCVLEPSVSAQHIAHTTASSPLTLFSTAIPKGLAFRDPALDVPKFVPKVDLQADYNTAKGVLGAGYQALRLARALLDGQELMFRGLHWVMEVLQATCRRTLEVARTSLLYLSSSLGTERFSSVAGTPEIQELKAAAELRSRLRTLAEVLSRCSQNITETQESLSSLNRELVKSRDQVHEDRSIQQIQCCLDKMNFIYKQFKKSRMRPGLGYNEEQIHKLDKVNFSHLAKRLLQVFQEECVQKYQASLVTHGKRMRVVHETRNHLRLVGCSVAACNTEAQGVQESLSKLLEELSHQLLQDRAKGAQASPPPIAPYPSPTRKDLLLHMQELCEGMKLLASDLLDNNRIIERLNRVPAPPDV

MAPK14 (human) = MAPK14 (human) (UniProt Q16539)
Chain of MAPK14 (human) (Q16539 whole entry, looked up): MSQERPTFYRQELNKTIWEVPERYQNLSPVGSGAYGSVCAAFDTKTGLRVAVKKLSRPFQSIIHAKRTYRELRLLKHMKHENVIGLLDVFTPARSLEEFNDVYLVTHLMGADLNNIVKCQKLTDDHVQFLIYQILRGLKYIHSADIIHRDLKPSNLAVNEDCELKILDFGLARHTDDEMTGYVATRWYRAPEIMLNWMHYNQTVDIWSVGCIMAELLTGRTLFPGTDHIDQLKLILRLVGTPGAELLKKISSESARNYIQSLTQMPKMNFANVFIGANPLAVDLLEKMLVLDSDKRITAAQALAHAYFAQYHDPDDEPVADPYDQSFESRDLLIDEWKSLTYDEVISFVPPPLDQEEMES

MELK (human) = MELK (human) (UniProt Q14680)
[1] = target: STK11 CAB39 STRADA (human) (UniProt Q9Y376+Q7RTN6+Q15831)
Chain of STK11 CAB39 STRADA (human) (Q15831 whole entry, looked up): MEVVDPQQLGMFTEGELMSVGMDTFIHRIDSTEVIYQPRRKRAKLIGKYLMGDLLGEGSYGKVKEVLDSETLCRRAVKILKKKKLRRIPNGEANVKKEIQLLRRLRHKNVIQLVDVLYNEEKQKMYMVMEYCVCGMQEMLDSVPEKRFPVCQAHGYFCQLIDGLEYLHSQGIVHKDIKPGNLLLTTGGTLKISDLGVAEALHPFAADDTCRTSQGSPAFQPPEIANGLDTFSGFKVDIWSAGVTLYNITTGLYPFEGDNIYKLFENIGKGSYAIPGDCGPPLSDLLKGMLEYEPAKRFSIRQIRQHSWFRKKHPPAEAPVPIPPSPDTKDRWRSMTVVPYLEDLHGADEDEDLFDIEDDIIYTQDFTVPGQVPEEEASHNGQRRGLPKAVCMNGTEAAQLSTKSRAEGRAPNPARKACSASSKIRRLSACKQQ
Chain of STK11 CAB39 STRADA (human) (Q7RTN6 whole entry, looked up): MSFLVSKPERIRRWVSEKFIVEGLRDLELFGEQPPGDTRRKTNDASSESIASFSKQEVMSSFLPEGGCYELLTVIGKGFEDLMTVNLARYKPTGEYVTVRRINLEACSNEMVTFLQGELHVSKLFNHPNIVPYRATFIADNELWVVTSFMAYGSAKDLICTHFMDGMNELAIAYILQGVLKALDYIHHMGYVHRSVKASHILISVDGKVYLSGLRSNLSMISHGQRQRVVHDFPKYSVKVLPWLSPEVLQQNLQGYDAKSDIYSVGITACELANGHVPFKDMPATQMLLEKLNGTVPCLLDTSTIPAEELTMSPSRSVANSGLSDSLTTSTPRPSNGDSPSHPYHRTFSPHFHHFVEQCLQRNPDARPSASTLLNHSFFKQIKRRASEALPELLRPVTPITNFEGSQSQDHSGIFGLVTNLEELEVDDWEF
Chain of STK11 CAB39 STRADA (human) (Q9Y376 whole entry, looked up): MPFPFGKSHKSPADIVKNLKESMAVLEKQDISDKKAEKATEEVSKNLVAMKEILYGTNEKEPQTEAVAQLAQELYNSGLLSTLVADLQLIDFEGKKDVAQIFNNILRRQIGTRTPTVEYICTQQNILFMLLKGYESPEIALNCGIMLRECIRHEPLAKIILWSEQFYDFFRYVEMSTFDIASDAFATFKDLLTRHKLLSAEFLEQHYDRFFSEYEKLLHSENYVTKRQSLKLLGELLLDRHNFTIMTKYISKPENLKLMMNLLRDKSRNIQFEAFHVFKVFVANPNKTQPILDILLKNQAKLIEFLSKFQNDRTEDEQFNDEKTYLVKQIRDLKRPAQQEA

YES1 (human) = YES1 (human) (UniProt P07947)
RPS6KA1 KD1 KD2 (human) = RPS6KA1 KD1 KD2 (human) (UniProt Q15418)
[2] = system: PAK2 (human), Q13177 [T402E]
MAP3K11 (human) = MAP3K11 (human) (UniProt Q16584)
ROCK2 (rat) = conditions: accession and sequence are those of the human protein
CHEK1 (human) = CHEK1 (human) (UniProt O14757)
SRC (human) = SRC (human) (UniProt P12931)
TTK (human) = TTK (human) (UniProt P33981)
CLK2 (human) = CLK2 (human) (UniProt P49760)
SYK (human) = SYK (human) (UniProt P43405)
MARK1 (human) = MARK1 (human) (UniProt Q9P0L2)
PRKCA (human) = PRKCA (human) (UniProt P17252)
BRSK1 (human) = BRSK1 (human) (UniProt Q8TDC3)
Chain of BRSK1 (human) (Q8TDC3 whole entry, looked up): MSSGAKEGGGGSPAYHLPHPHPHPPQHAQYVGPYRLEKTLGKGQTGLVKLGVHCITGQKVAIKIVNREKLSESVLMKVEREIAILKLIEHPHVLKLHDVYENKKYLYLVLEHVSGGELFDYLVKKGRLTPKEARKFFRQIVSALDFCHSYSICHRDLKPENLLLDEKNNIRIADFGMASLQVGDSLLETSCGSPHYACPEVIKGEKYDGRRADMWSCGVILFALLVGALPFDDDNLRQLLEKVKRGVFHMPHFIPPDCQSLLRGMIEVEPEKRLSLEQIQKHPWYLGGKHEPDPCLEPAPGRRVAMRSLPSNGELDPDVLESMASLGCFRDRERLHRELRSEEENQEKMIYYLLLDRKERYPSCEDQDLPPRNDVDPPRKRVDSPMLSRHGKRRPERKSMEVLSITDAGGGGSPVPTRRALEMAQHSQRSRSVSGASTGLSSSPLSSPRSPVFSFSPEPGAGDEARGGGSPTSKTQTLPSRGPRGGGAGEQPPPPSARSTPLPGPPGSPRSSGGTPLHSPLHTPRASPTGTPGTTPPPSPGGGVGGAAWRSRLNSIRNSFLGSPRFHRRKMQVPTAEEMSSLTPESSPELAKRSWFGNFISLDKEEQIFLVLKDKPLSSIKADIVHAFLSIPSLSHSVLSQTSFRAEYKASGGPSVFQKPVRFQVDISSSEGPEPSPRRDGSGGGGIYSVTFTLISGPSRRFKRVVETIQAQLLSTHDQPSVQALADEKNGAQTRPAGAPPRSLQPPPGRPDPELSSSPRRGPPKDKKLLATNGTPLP

CSK (human) = CSK (human) (UniProt P41240)
IKBKB (human) = IKBKB (human) (UniProt O14920)
Chain of IKBKB (human) (O14920 whole entry, looked up): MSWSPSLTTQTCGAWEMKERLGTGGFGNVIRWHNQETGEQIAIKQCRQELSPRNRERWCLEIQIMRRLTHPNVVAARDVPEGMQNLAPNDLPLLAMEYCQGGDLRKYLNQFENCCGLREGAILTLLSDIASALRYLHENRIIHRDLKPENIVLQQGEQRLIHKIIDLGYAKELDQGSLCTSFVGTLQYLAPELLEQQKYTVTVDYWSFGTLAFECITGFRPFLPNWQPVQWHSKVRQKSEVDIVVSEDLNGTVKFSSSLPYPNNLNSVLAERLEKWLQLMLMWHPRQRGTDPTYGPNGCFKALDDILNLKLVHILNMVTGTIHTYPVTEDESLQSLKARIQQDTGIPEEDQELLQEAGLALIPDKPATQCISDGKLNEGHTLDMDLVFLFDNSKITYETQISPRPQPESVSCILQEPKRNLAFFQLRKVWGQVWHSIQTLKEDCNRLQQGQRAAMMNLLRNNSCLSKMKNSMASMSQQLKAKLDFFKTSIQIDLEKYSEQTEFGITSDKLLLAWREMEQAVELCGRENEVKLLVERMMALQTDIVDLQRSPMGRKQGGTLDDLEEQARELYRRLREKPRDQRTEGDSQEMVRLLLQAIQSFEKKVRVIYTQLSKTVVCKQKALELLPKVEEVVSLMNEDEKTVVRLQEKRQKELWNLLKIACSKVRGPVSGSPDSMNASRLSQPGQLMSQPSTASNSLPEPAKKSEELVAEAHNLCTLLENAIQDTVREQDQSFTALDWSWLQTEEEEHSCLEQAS

PRKCZ (human) = PRKCZ (human) (UniProt Q05513)
PKN2 (human) = PKN2 (human) (UniProt Q16513)
HIPK1 (human) = HIPK1 (human) (UniProt Q86Z02)
MAPK3 (human) = MAPK3 (human) (UniProt P27361)
LCK (mouse) = conditions: accession and sequence are those of the human protein
DYRK2 (human) = DYRK2 (human) (UniProt Q92630)
INSRR (human) = INSRR (human) (UniProt P14616)
[3] = system: RPS6KB1 (human), P23443 [T412E]
Chain of RPS6KB1 (human), P23443 [T412E] (P23443 whole entry T412E, looked up): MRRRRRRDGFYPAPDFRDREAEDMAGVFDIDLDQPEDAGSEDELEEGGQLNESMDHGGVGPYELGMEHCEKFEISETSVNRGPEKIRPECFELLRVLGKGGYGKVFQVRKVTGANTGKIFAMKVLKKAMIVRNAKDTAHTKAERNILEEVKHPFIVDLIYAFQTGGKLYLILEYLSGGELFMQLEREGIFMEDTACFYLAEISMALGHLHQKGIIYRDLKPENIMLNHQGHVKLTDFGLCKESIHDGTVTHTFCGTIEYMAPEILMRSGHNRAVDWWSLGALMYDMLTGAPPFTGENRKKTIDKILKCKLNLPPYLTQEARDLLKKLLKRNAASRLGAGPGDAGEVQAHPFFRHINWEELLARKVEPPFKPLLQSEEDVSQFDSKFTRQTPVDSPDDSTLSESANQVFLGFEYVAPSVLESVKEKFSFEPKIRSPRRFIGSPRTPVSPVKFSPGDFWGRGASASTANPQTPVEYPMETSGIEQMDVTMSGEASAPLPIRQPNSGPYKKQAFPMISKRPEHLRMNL

NEK2 (human) = NEK2 (human) (UniProt P51955)
MAPK10 (human) = MAPK10 (human) (UniProt P53779)
TBK1 (human) = TBK1 (human) (UniProt Q9UHD2)
MAPK13 (human) = MAPK13 (human) (UniProt O15264)

`COc1cc(C(=O)N2CCC(N3CCN(C)CC3)CC2)ccc1Nc1ncc2c(n1)N(C)c1ccccc1C(=O)N2C` showed a residual activity (MAP3K1 (human); compound 1.0 µM) of 87%, a residual activity (MAP3K1 (human); compound 10.0 µM) of 83% and a residual activity (DAPK1 (human); compound 1.0 µM) of 85%. For the same molecule, the residual activity (DAPK1 (human); compound 10.0 µM) was 77%, the residual activity (PDPK1 (human)) was 68% and 74% and the residual activity (IKBKE (human); compound 1.0 µM) was 76%. The residual activity (IKBKE (human); compound 10.0 µM) was 88%, the residual activity (MAPK14 (human); compound 1.0 µM) was 95% and the residual activity (MAPK14 (human); compound 10.0 µM) was 96%. For the same molecule, the residual activity (MELK (human); compound 1.0 µM) was 88%, the residual activity (MELK (human); compound 10.0 µM) was 92% and the residual activity ([1]; compound 1.0 µM) was 78%. It also gave a residual activity ([1]; compound 10.0 µM) of 78%, a residual activity (YES1 (human); compound 1.0 µM) of 86% and a residual activity (YES1 (human); compound 10.0 µM) of 82%. For the same molecule, the residual activity (RPS6KA1 KD1 KD2 (human); compound 1.0 µM) was 97%, the residual activity (RPS6KA1 KD1 KD2 (human); compound 10.0 µM) was 367% and the residual activity ([2]; compound 1.0 µM) was 97%. It also gave a residual activity ([2]; compound 10.0 µM) of 110%, a residual activity (MAP3K11 (human); compound 1.0 µM) of 94% and a residual activity (MAP3K11 (human); compound 10.0 µM) of 84%. For the same molecule, the residual activity (ROCK2 (rat); compound 1.0 µM) was 84%, the residual activity (ROCK2 (rat); compound 10.0 µM) was 84% and the residual activity (CHEK1 (human); compound 1.0 µM) was 82%. The residual activity (CHEK1 (human); compound 10.0 µM) was 96%, the residual activity (SRC (human); compound 1.0 µM) was 99% and the residual activity (SRC (human); compound 10.0 µM) was 99%. For the same molecule, the residual activity (TTK (human); compound 1.0 µM) was 84%, the residual activity (TTK (human); compound 10.0 µM) was 91% and the residual activity (CLK2 (human); compound 1.0 µM) was 76%. It also gave a residual activity (CLK2 (human); compound 10.0 µM) of 69%, a residual activity (SYK (human); compound 1.0 µM) of 71% and a residual activity (SYK (human); compound 10.0 µM) of 63%. For the same molecule, the residual activity (MARK1 (human); compound 1.0 µM) was 89%, the residual activity (MARK1 (human); compound 10.0 µM) was 93% and the residual activity (PRKCA (human); compound 1.0 µM) was 95%. It also gave a residual activity (PRKCA (human); compound 10.0 µM) of 97%, a residual activity (BRSK1 (human); compound 1.0 µM) of 83% and a residual activity (BRSK1 (human); compound 10.0 µM) of 78%. The residual activity (CSK (human); compound 1.0 µM) was 70%, the residual activity (CSK (human); compound 10.0 µM) was 80% and the residual activity (IKBKB (human); compound 1.0 µM) was 103%. It also gave a residual activity (IKBKB (human); compound 10.0 µM) of 106%, a residual activity (PRKCZ (human); compound 1.0 µM) of 94% and a residual activity (PRKCZ (human); compound 10.0 µM) of 104%. The residual activity (PKN2 (human); compound 1.0 µM) was 74%, the residual activity (PKN2 (human); compound 10.0 µM) was 80% and the residual activity (HIPK1 (human); compound 1.0 µM) was 94%. For the same molecule, the residual activity (HIPK1 (human); compound 10.0 µM) was 104%, the residual activity (MAPK3 (human); compound 1.0 µM) was 105% and the residual activity (MAPK3 (human); compound 10.0 µM) was 104%. The residual activity (LCK (mouse); compound 1.0 µM) was 106%, the residual activity (LCK (mouse); compound 10.0 µM) was 99% and the residual activity (DYRK2 (human); compound 1.0 µM) was 90%. For the same molecule, the residual activity (DYRK2 (human); compound 10.0 µM) was 98%, the residual activity (INSRR (human); compound 1.0 µM) was 80% and the residual activity (INSRR (human); compound 10.0 µM) was 91%. For the same molecule, the residual activity ([3]; compound 1.0 µM) was 86%, the residual activity ([3]; compound 10.0 µM) was 81% and the residual activity (NEK2 (human); compound 1.0 µM) was 92%. The residual activity (NEK2 (human); compound 10.0 µM) was 110%, the residual activity (MAPK10 (human); compound 1.0 µM) was 92% and the residual activity (MAPK10 (human); compound 10.0 µM) was 109%. The residual activity (TBK1 (human); compound 1.0 µM) was 94%, the residual activity (TBK1 (human); compound 10.0 µM) was 104% and the residual activity (MAPK13 (human); compound 1.0 µM) was 102%. The residual activity (MAPK13 (human); compound 10.0 µM) was 106%.
